Experimental data taken from ChEMBL document CHEMBL5729561, “Compounds and uses thereof” (2023).

Assay: On day 0 cells were seeded in 30 μL media into each well of 384-well cell culture plates. The seeding density was 8000 cells/well. On day 1, cells were treated with 30 nL DMSO or 30 nL of 3-fold serially DMSO-diluted compounds (10 points in duplicates with 1 μM as final top dose). Subsequently plates were incubated for 6 hours in a standard tissue culture incubator and equilibrated at room temperature for 15 minutes. Nanoluciferase activity was measured by adding 15 μL of freshly prepared Nano-Glo Luciferase Assay Reagent (Promega N1130), shaking the plates for 10 minutes and reading the bioluminescence using an EnVision reader.
Assay type: cell-based

SMILES	IC50
COc1cc(-c2cn(C)c(=O)c3cnccc23)cc(OC)c1CN(C)C(=O)CCCCN1CCOC2(CCN(c3ccc4c(c3)C(=O)N(C3CCC(=O)NC3=O)C4=O)CC2)C1 (stereo not given)	< 0.01 µM
COc1cc(-c2cn(C)c(=O)c3cnccc23)cc(OC)c1CN1CC(CC(=O)NCCCCCCCCNc2cccc3c2C(=O)N(C2CCC(=O)NC2=O)C3=O)C1 (stereo not given)	< 0.01 µM
COc1cc(-c2cn(C)c(=O)c3cnccc23)cc(OC)c1CN1CC(C(=O)NCCS(=O)(=O)CCNc2cccc3c2C(=O)N(C2CCC(=O)NC2=O)C3=O)C1 (stereo not given)	in the range around 0.055 µM
COc1cc(-c2cn(C)c(=O)c3cnccc23)cc(OC)c1CN1CC(C(=O)N(C)CCCCCCCCNc2cccc3c2C(=O)N(C2CCC(=O)NC2=O)C3=O)C1 (stereo not given)	< 0.01 µM
COc1cc(-c2cn(C)c(=O)c3cnccc23)cc(OC)c1CNCCOCC(=O)N1CC(COc2ccc3c(c2)C(=O)N(C2CCC(=O)NC2=O)C3=O)C1 (stereo not given)	in the range around 0.55 µM
COc1cc(-c2cn(C)c(=O)c3cnccc23)cc(OC)c1CN(C)CC12CC(C(=O)NCCCCCNc3cccc4c3C(=O)N(C3CCC(=O)NC3=O)C4=O)(C1)C2 (stereo not given)	< 0.01 µM
COc1cc(-c2cn(C)c(=O)c3cnccc23)cc(OC)c1CN(C)CC(=O)N1CCC(C2CCN(C(=O)COc3cccc4c3C(=O)N(C3CCC(=O)NC3=O)C4=O)CC2)CC1 (stereo not given)	in the range around 0.055 µM
COc1cc(-c2cn(C)c(=O)c3cnccc23)cc(OC)c1CN1CC[C@H]1C(=O)NCCCCCCCCNc1cccc2c1C(=O)N(C1CCC(=O)NC1=O)C2=O (stereo not given in full)	< 0.01 µM
COc1cc(-c2cn(C)c(=O)c3cnccc23)cc(OC)c1CN1CCN(C(=O)CCCCOc2cccc3c2C(=O)N(C2CCC(=O)NC2=O)C3=O)CC1 (stereo not given)	< 0.01 µM
COc1cc(-c2cn(C)c(=O)c3cnccc23)cc(OC)c1CN(C)CC12CC(C(=O)NCCOCCOCCNc3cccc4c3C(=O)N(C3CCC(=O)NC3=O)C4=O)(C1)C2 (stereo not given)	in the range around 0.55 µM
COc1cc(-c2cn(C)c(=O)c3cnccc23)cc(OC)c1CN1CC[C@H]1C(=O)NCCN(C)CCNc1cccc2c1C(=O)N(C1CCC(=O)NC1=O)C2=O (stereo not given in full)	in the range around 0.55 µM
COc1cc(-c2cn(C)c(=O)c3cnccc23)cc(OC)c1CN1CC(S(=O)(=O)NCCCCCCCCNc2cccc3c2C(=O)N(C2CCC(=O)NC2=O)C3=O)C1 (stereo not given)	< 0.01 µM
COc1cc(-c2cn(C)c(=O)c3cnccc23)cc(OC)c1CN1CC(C(=O)NCCCCCCCCNc2cccc3c2C(=O)N(C2CCC(=O)NC2=O)C3=O)C1 (stereo not given)	< 0.01 µM
COc1cc(-c2cn(C)c(=O)c3cnccc23)cc(OC)c1CN1CCC2(CC1)CN(C(=O)CCCCOc1cccc3c1C(=O)N(C1CCC(=O)NC1=O)C3=O)CCO2 (stereo not given)	< 0.01 µM
COc1cc(-c2cn(C)c(=O)c3cnccc23)cc(OC)c1CN(C)CCCOCCN1CCN(c2ccc3c(c2)C(=O)N(C2CCC(=O)NC2=O)C3=O)CC1 (stereo not given)	in the range around 0.055 µM
COc1cc(-c2cn(C)c(=O)c3cnccc23)cc(OC)c1CN(C)NC(=O)CCCCC(=O)NC12CC(Nc3cccc4c3C(=O)N(C3CCC(=O)NC3=O)C4=O)(C1)C2 (stereo not given)	< 0.01 µM
COc1cc(-c2cn(C)c(=O)c3cnccc23)cc(OC)c1CN1CC(C)(C(=O)NCCCCCCCCNc2cccc3c2C(=O)N(C2CCC(=O)NC2=O)C3=O)C1 (stereo not given)	< 0.01 µM
COc1cc(-c2cn(C)c(=O)c3cnccc23)cc(OC)c1CN(C)C12CC(C(=O)NCCOCCOCCNc3cccc4c3C(=O)N(C3CCC(=O)NC3=O)C4=O)(C1)C2 (stereo not given)	< 0.01 µM
COc1cc(-c2cn(C)c(=O)c3cnccc23)cc(OC)c1CN1CC[C@H]1C(=O)NCCN(C)CCNC(=O)COc1ccc2c(c1)C(=O)N(C1CCC(=O)NC1=O)C2=O (stereo not given in full)	> 1 µM
COc1cc(-c2cn(C)c(=O)c3cnccc23)cc(OC)c1CN1CC2(C1)CN(C(=O)COc1cccc3c1C(=O)N(C1CCC(=O)NC1=O)C3=O)C2 (stereo not given)	in the range around 0.55 µM
COc1cc(-c2cn(C)c(=O)c3cnccc23)cc(OC)c1CN(C)CC12CC(NC(=O)CCCCOc3cccc4c3C(=O)N(C3CCC(=O)NC3=O)C4=O)(C1)C2 (stereo not given)	< 0.01 µM
COc1cc(-c2cn(C)c(=O)c3cnccc23)cc(OC)c1CN1CC(C(=O)NCCCCCCCCNc2cccc3c2C(=O)N(C2CCC(=O)N(C)C2=O)C3=O)C1 (stereo not given)	> 1 µM
COc1cc(-c2cn(C)c(=O)c3cnccc23)cc(OC)c1CN1CCN(C(=O)C2CC2CNC(=O)COc2cccc3c2C(=O)N(C2CCC(=O)NC2=O)C3=O)CC1 (stereo not given)	in the range around 0.55 µM
COc1cc(-c2cn(C)c(=O)c3cnccc23)cc(OC)c1CNCCCN1CC(Oc2ccc3c(c2)C(=O)N(C2CCC(=O)NC2=O)C3=O)C1 (stereo not given)	in the range around 0.055 µM
COc1cc(-c2cn(C)c(=O)c3cnccc23)cc(OC)c1CN(C)CCCN1CCC(Oc2ccc3c(c2)C(=O)N(C2CCC(=O)NC2=O)C3=O)CC1 (stereo not given)	< 0.01 µM
COc1cc(-c2cn(C)c(=O)c3cnccc23)cc(OC)c1CN(C)CC(=O)NCCCCN1CCOC2(CCN(c3ccc4c(c3)C(=O)N(C3CCC(=O)NC3=O)C4=O)CC2)C1 (stereo not given)	< 0.01 µM
COc1cc(-c2cn(C)c(=O)c3cnccc23)cc(OC)c1CN1CC[C@H]1CN(C)Cc1cccc2c1C(=O)N(C1CCC(=O)NC1=O)C2=O (stereo not given in full)	in the range around 0.055 µM
COc1cc(-c2cn(C)c(=O)c3cnccc23)cc(OC)c1CN(C)C12CC(NC(=O)CCOCCOCCNc3cccc4c3C(=O)N(C3CCC(=O)NC3=O)C4=O)(C1)C2 (stereo not given)	< 0.01 µM

SMILES	IC50
COc1cc(-c2cn(C)c(=O)c3cnccc23)cc(OC)c1CN(C)Cc1cn(-c2ccc3c(c2)C(=O)N(C2CCC(=O)NC2=O)C3=O)nn1 (stereo not given)	in the range around 0.55 µM
COc1cc(-c2cn(C)c(=O)c3cc(O)ccc23)cc(OC)c1CN1CCC2(CC1)CN(C(=O)CCCOc1cccc3c1C(=O)N(C1CCC(=O)NC1=O)C3=O)CCO2 (stereo not given)	in the range around 0.055 µM
COc1cc(-c2cn(C)c(=O)c3cnccc23)cc(OC)c1CN1CCCC(OCc2cn(CCCCOc3ccc4c(c3)C(=O)N(C3CCC(=O)NC3=O)C4=O)nn2)C1 (stereo not given)	in the range around 0.055 µM
COc1cc(-c2cn(C)c(=O)c3cnccc23)cc(OC)c1CN1CC(S(=O)(=O)NCCOCCOCCNc2cccc3c2C(=O)N(C2CCC(=O)NC2=O)C3=O)C1 (stereo not given)	< 0.01 µM
COc1cc(-c2cn(C)c(=O)c3cnccc23)cc(OC)c1CN1CC2(C1)CN(C(=O)CCCOc1cccc3c1C(=O)N(C1CCC(=O)NC1=O)C3=O)C2 (stereo not given)	in the range around 0.055 µM
COc1cc(-c2cn(C)c(=O)c3cnccc23)cc(OC)c1CN(C)C12CC(NC(=O)CCCCCOc3cccc4c3C(=O)N(C3CCC(=O)NC3=O)C4=O)(C1)C2 (stereo not given)	< 0.01 µM
COc1cc(-c2cn(C)c(=O)c3cnccc23)cc(OC)c1CN1CC(C(=O)N2CCC(C3CCN(C(=O)COc4cccc5c4C(=O)N(C4CCC(=O)NC4=O)C5=O)CC3)CC2)C1 (stereo not given)	< 0.01 µM
COc1cc(-c2cn(C)c(=O)c3cnccc23)cc(OC)c1CN1CC(C(=O)NCCCCCCCCNC(=O)COc2cccc3c2C(=O)N(C2CCC(=O)NC2=O)C3=O)C1 (stereo not given)	in the range around 0.055 µM
COc1cc(-c2cn(C)c(=O)c3cnccc23)cc(OC)c1CN1CC(C(=O)NCCCCCNc2cccc3c2C(=O)N(C2CCC(=O)NC2=O)C3=O)C1 (stereo not given)	< 0.01 µM
COc1cc(-c2cn(C)c(=O)c3cnccc23)cc(OC)c1CN1CC(OCc2cn(CCOc3ccc4c(c3)C(=O)N(C3CCC(=O)NC3=O)C4=O)nn2)C1 (stereo not given)	in the range around 0.055 µM
COc1cc(-c2cn(C)c(=O)c3cnccc23)cc(OC)c1CN1CC(NC(=O)CCCCCOc2cccc3c2C(=O)N(C2CCC(=O)NC2=O)C3=O)C1 (stereo not given)	in the range around 0.055 µM
COc1cc(-c2cn(C)c(=O)c3cnccc23)cc(OC)c1CN1CC(S(=O)(=O)NCCCCNc2ccc3c(c2)C(=O)N(C2CCC(=O)NC2=O)C3=O)C1 (stereo not given)	in the range around 0.055 µM
COc1cc(-c2cn(C)c(=O)c3cnccc23)cc(OC)c1CN1CCN(C(=O)CCCOc2cccc3c2C(=O)N(C2CCC(=O)NC2=O)C3=O)CC1 (stereo not given)	< 0.01 µM
COc1cc(-c2cn(C)c(=O)c3cnccc23)cc(OC)c1CN1CCN(C(=O)C2CC2CNC(=O)COc2ccc3c(c2)C(=O)N(C2CCC(=O)NC2=O)C3=O)CC1 (stereo not given)	in the range around 0.55 µM
COc1cc(-c2cn(C)c(=O)c3cnccc23)cc(OC)c1CN1CCC2(CC1)CN(C(=O)CCCOc1cccc3c1C(=O)N(C1CCC(=O)NC1=O)C3=O)CCO2 (stereo not given)	< 0.01 µM
COc1cc(-c2cn(C)c(=O)c3cnccc23)cc(OC)c1CN1CC(S(=O)(=O)NCCCCCCNc2ccc3c(c2)C(=O)N(C2CCC(=O)NC2=O)C3=O)C1 (stereo not given)	< 0.01 µM
COc1cc(-c2cn(C)c(=O)c3cnccc23)cc(OC)c1CN1CCC2(CC1)CN(C(=O)COc1cccc3c1C(=O)N(C1CCC(=O)NC1=O)C3=O)CCO2 (stereo not given)	in the range around 0.055 µM
COc1cc(-c2cn(C)c(=O)c3cnccc23)cc(OC)c1CN1CC(S(=O)(=O)NCCCCCNc2ccc3c(c2)C(=O)N(C2CCC(=O)NC2=O)C3=O)C1 (stereo not given)	< 0.01 µM
COc1cc(-c2cn(C)c(=O)c3cnccc23)cc(OC)c1CN(C)CC12CC(NC(=O)CCOCCOCCNc3cccc4c3C(=O)N(C3CCC(=O)NC3=O)C4=O)(C1)C2 (stereo not given)	in the range around 0.55 µM
COc1cc(-c2cn(C)c(=O)c3cnccc23)cc(OC)c1CN1CCN(CCCOc2ccc3c(c2)C(=O)N(C2CCC(=O)NC2=O)C3=O)CC1 (stereo not given)	< 0.01 µM
COc1cc(-c2cn(C)c(=O)c3cnccc23)cc(OC)c1CN1CC2(C1)CN(C(=O)CCCCOc1cccc3c1C(=O)N(C1CCC(=O)NC1=O)C3=O)C2 (stereo not given)	< 0.01 µM
COc1cc(-c2cn(C)c(=O)c3cnccc23)cc(OC)c1CN1CCN(C(=O)COc2cccc3c2C(=O)N(C2CCC(=O)NC2=O)C3=O)CC1 (stereo not given)	< 0.01 µM
COc1cc(-c2cn(C)c(=O)c3cnccc23)cc(OC)c1CN1CC[C@@H]1C(=O)NCCCCCCCCNc1cccc2c1C(=O)N(C1CCC(=O)NC1=O)C2=O (stereo not given in full)	< 0.01 µM
COc1cc(-c2cn(C)c(=O)c3cnccc23)cc(OC)c1CN1CC(C(=O)NCCOCCOCCNc2cccc3c2C(=O)N(C2CCC(=O)NC2=O)C3=O)C1 (stereo not given)	in the range around 0.055 µM
COc1cc(-c2cn(C)c(=O)c3cnccc23)cc(OC)c1CN1CC(C(=O)N(C)CCCCCNc2cccc3c2C(=O)N(C2CCC(=O)NC2=O)C3=O)C1 (stereo not given)	< 0.01 µM
COc1cc(-c2cn(C)c(=O)c3cnccc23)cc(OC)c1CN(C)C12CC(C(=O)NCCCCCNc3cccc4c3C(=O)N(C3CCC(=O)NC3=O)C4=O)(C1)C2 (stereo not given)	< 0.01 µM
COc1cc(-c2cn(C)c(=O)c3cnccc23)cc(OC)c1CN1CCC2(CC1)CN(C(=O)COc1ccc3c(c1)C(=O)N(C1CCC(=O)NC1=O)C3=O)CCO2 (stereo not given)	in the range around 0.55 µM
